# Data from patent US20250177382A1, “NEK7 INHIBITORS” (Halia Therapeutics, Inc., priority 2021, published 2025).
# Biological target: T1, full-length recombinant human NEK7 (Homo sapiens, UniProt Q8TDX7)
# T1 construct: full-length recombinant human NEK7; GST (N); purchased SignalChem N09-10G; host or cells: Sf9 insect cells (baculovirus)
# Test: NEK7 enzymatic assay
# Type: biochemical
# Conditions: casein substrate, [32P]-ATP, radiometric P81 filter assay
# Description: Casein substrate (from bovine milk, hydrolyzed and partially dephosphorylated mixture of α, β, and κ caseins, obtained from Sigma Aldrich, catalogue #C4765, diluted in distilled water to a final concentration of 1 mg/mL, assay concentration 20 μM) and full-length recombinant human NEK7 (expressed by baculovirus in Sf9 insect cells using a N-terminal GST tag, obtained from SignalChem, catalogue #N09-10G, […], assay concentration 70 nM) were mixed in assay buffer (20 mM Hepes pH 7.5, 10 mM MgCl2, 1 mM EGTA, 0.02% Brij35, 0.02 mg/mL BSA, 0.1 mM […], 2 mM DTT, 1% DMSO). Compounds of interest (in DMSO, serial 3-fold dilution from 10 μM to 0.5 nM) or control (1% DMSO) were dispensed into the kinase reaction mixture by Acoustic technology (Echo550; nanoliter range). After incubation at room temperature for 20 minutes, the kinase reaction was initiated by addition of [^32P]-ATP (Specific activity 10 μUCi/μl) and the mixture was incubated at room temperature for 2 hours. The reaction was then stopped by spotting the reaction mixture on strips of phosphocellulose P81 paper. Following washing, the radioactivity of the P81 paper was measured and kinase activity data were expressed as the percent remaining kinase activity in test samples compared to vehicle (dimethyl sulfoxide) reactions. IC50 values and curve fits were obtained using Prism (GraphPad Software).
# Representative compounds were tested for inhibitory activity against NEK7 and IL-1β release according to the procedures described above.
# T1 sequence (Q8TDX7 whole entry): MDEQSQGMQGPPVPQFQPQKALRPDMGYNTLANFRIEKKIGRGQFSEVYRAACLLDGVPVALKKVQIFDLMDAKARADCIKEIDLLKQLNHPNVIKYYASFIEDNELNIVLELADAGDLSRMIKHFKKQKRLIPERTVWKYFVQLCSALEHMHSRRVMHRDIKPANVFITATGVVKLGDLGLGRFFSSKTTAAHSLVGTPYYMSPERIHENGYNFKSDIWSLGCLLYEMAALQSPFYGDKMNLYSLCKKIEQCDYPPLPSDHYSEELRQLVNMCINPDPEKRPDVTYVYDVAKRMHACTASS
row,IC50 [nM],SMILES
1,> 2000,"CC(=O)N1CCN(Cc2ccc(NC(=O)Nc3ccc(Oc4ccnc5[nH]cc(Cl)c45)cc3F)cc2C(F)(F)F)CC1 [Example I-49, 1-(4-((4-acetylpiperazin-1-yl)methyl)-3-(trifluoromethyl)phenyl)-3-(4-((3-chloro-1H-pyrrolo[2,3-b]pyridin-4-yl)oxy)-2-fluorophenyl)urea]"
2,> 2000,"O=C(Nc1ccc(CN2CCC(F)(F)CC2)c(C(F)(F)F)c1)Nc1ccc(Oc2ccnc3[nH]cc(Cl)c23)cc1F [Example I-47, 1-(4-((3-chloro-1H-pyrrolo[2,3-b]pyridin-4-yl)oxy)-2-fluorophenyl)-3-(4-((4,4-difluoropiperidin-1-yl)methyl)-3-(trifluoromethyl)phenyl)urea]"
3,< 200,"Cc1c[nH]c2nccc(Oc3ccc(NC(=O)Nc4cnc(OC5CCN(C)CC5)c(C(F)(F)F)c4)c(F)c3)c12 [Example I-61, 1-(2-fluoro-4-((3-methyl-1H-pyrrolo[2,3-b]pyridin-4-yl)oxy)phenyl)-3-(6-((1-methylpiperidin-4-yl)oxy)-5-(trifluoromethyl)pyridin-3-yl)urea]"
4,500 to 2000,"CN1CCN(Cc2cc(NC(=O)Nc3ccc(Oc4ccnc5[nH]cc(Cl)c45)cc3F)cc(C(F)(F)F)c2)CC1 [Example I-65, 1-(4-((3-chloro-1H-pyrrolo[2,3-b]pyridin-4-yl)oxy)-2-fluorophenyl)-3-(3-((4-methylpiperazin-1-yl)methyl)-5-(trifluoromethyl)phenyl)urea]"
5,> 2000,"CN1CCN(Cc2ccc(NC(=O)Nc3ccc(Oc4ccnc5[nH]cc(Cl)c45)cc3F)cc2C(F)(F)F)CC12CC2 [Example I-60, 1-(4-((3-chloro-1H-pyrrolo[2,3-b]pyridin-4-yl)oxy)-2-fluorophenyl)-3-(4-((4-methyl-4,7-diazaspiro[2.5]octan-7-yl)methyl)-3-(trifluoromethyl)phenyl)urea]"
6,500 to 2000,"CN1CCC(Oc2ccc(NC(=O)Nc3ccc(Oc4ccnc5[nH]cc(Cl)c45)cc3F)cc2C(F)(F)F)C(F)C1 (centres unmarked) [Example I-66, 1-(4-((3-chloro-1H-pyrrolo[2,3-b]pyridin-4-yl)oxy)-2-fluorophenyl)-3-(4-((3-fluoro-1-methylpiperidin-4-yl)oxy)-3-(trifluoromethyl)phenyl)urea]"
7,< 200,"Cc1c[nH]c2nccc(Oc3ccc(NC(=O)Nc4ccc(OC5CCN(C)CC5)c(C(F)(F)F)c4)c(F)c3)c12 [Example I-63, 1-(2-fluoro-4-((3-methyl-1H-pyrrolo[2,3-b]pyridin-4-yl)oxy)phenyl)-3-(4-((1-methylpiperidin-4-yl)oxy)-3-(trifluoromethyl)phenyl)urea]"
8,200 to 500,"CN1C[C@@H]2CN(Cc3ccc(NC(=O)Nc4ccc(Oc5ccnc6[nH]cc(Cl)c56)cc4F)cc3C(F)(F)F)C[C@@H]2C1 [Example I-15, 1-(4-((3-chloro-1H-pyrrolo[2,3-b]pyridin-4-yl)oxy)-2-fluorophenyl)-3-(4-(((3aR,6aS)-5-methylhexahydropyrrolo[3,4-c]pyrrol-2(1H)-yl)methyl)-3-(trifluoromethyl)phenyl)urea]"
9,500 to 2000,"O=C(Nc1ccc(CN2CCN(CCF)CC2)c(C(F)(F)F)c1)Nc1ccc(Oc2ccnc3[nH]cc(Cl)c23)cc1F [Example I-50, 1-(4-((3-chloro-1H-pyrrolo[2,3-b]pyridin-4-yl)oxy)-2-fluorophenyl)-3-(4-((4-(2-fluoroethyl)piperazin-1-yl)methyl)-3-(trifluoromethyl)phenyl)urea]"

# Continued, molecule first:
row,SMILES,IC50 [nM]
1,"CN1CCN(Cc2ccc(NC(=O)Nc3ccc(Oc4ccnc5[nH]cc(Cl)c45)cc3F)cc2OC(F)(F)F)CC1 [Example I-62, 1-(4-((3-chloro-1H-pyrrolo[2,3-b]pyridin-4-yl)oxy)-2-fluorophenyl)-3-(4-((4-methylpiperazin-1-yl)methyl)-3-(trifluoromethoxy)phenyl)urea]",< 200
2,"CN1CCN(Cc2ccc(NC(=O)Nc3ccc(Oc4ccnc5[nH]cc(Cl)c45)cc3F)cc2C(F)(F)F)C2(CC2)C1 [Example I-20, 1-(4-((3-chloro-1H-pyrrolo[2,3-b]pyridin-4-yl)oxy)-2-fluorophenyl)-3-(4-((7-methyl-4,7-diazaspiro[2.5]octan-4-yl)methyl)-3-(trifluoromethyl)phenyl)urea]",> 2000
3,"Cc1cn(-c2ccc(NC(=O)Nc3ccc(Oc4ccnc5[nH]cc(Cl)c45)cc3F)cc2C(F)(F)F)cn1 [Example I-32, 1-(4-((3-chloro-1H-pyrrolo[2,3-b]pyridin-4-yl)oxy)-2-fluorophenyl)-3-(4-(4-methyl-1H-imidazol-1-yl)-3-(trifluoromethyl)phenyl)urea]",> 2000
4,"CN1CCN(Cc2ccc(NC(=O)Nc3ccc(Oc4ccnc5[nH]cc(Cl)c45)cc3F)cc2C2CC2)CC1 [Example I-26, 1-(4-((3-chloro-1H-pyrrolo[2,3-b]pyridin-4-yl)oxy)-2-fluorophenyl)-3-(3-cyclopropyl-4-((4-methylpiperazin-1-yl)methyl)phenyl)urea]",500 to 2000
5,"CN1CCN(Cc2ccc(NC(=O)Nc3ccc(Oc4ccnc5[nH]cc(Cl)c45)cc3F)cc2Cl)CC1 [Example I-30, 1-(4-((3-chloro-1H-pyrrolo[2,3-b]pyridin-4-yl)oxy)-2-fluorophenyl)-3-(3-chloro-4-((4-methylpiperazin-1-yl)methyl)phenyl)urea]",500 to 2000
6,"CN1CCN(C2CC(F)(F)c3cc(NC(=O)Nc4ccc(Oc5ccnc6[nH]cc(Cl)c56)cc4F)ccc32)CC1 (centres unmarked) [Example I-67, 1-(4-((3-chloro-1H-pyrrolo[2,3-b]pyridin-4-yl)oxy)-2-fluorophenyl)-3-(3,3-difluoro-1-(4-methylpiperazin-1-yl)-2,3-dihydro-1H-inden-5-yl)urea]",> 2000
7,"CN(C)C1CCN(Cc2ccc(NC(=O)Nc3ccc(Oc4ccnc5[nH]cc(Cl)c45)cc3F)cc2C(F)(F)F)CC1 [Example I-57, 1-(4-((3-chloro-1H-pyrrolo[2,3-b]pyridin-4-yl)oxy)-2-fluorophenyl)-3-(4-((4-(dimethylamino)piperidin-1-yl)methyl)-3-(trifluoromethyl)phenyl)urea]",> 2000
8,"CN1CCCN(Cc2ccc(NC(=O)Nc3ccc(Oc4ccnc5[nH]cc(Cl)c45)cc3F)cc2C(F)(F)F)CC1 [Example I-33, 1-(4-((3-chloro-1H-pyrrolo[2,3-b]pyridin-4-yl)oxy)-2-fluorophenyl)-3-(4-((4-methyl-1,4-diazepan-1-yl)methyl)-3-(trifluoromethyl)phenyl)urea]",500 to 2000
9,"O=C(Nc1ccc(OC2CCN(C3COC3)CC2)c(C(F)(F)F)c1)Nc1ccc(Oc2ccnc3[nH]cc(Cl)c23)cc1F [Example I-48, 1-(4-((3-chloro-1H-pyrrolo[2,3-b]pyridin-4-yl)oxy)-2-fluorophenyl)-3-(4-((1-(oxetan-3-yl)piperidin-4-yl)oxy)-3-(trifluoromethyl)phenyl)urea]",> 2000
10,"CCN1CCC(Oc2ccc(NC(=O)Nc3ccc(Oc4ccnc5[nH]cc(Cl)c45)cc3F)cc2C(F)(F)F)CC1 [Example I-64, 1-(4-((3-chloro-1H-pyrrolo[2,3-b]pyridin-4-yl)oxy)-2-fluorophenyl)-3-(4-((1-ethylpiperidin-4-yl)oxy)-3-(trifluoromethyl)phenyl)urea]",< 200
11,"O=C(Nc1ccc(CN2CCNCC2)c(C(F)(F)F)c1)Nc1ccc(Oc2ccnc3[nH]cc(Cl)c23)cc1F [Example I-55, 1-(4-((3-chloro-1H-pyrrolo[2,3-b]pyridin-4-yl)oxy)-2-fluorophenyl)-3-(4-(piperazin-1-ylmethyl)-3-(trifluoromethyl)phenyl)urea]",200 to 500
